“Also recorded” adds a separate entry of the source. Like-named read-outs stand apart in the source and are kept apart here.
Experiments:
Sm.5HTR [1] = target: Sm.5HTR (Schistosoma mansoni, UniProt G4V5G4); type: cell-based
Method: (§1) HEK293 cells (ATCC CRL-1573.3) were cultured in DMEM supplemented with 10% fetal bovine serum (FBS), penicillin (100 units/mL), streptomycin (100 μg/mL), and L-glutamine (290 μg/mL). Cells were transiently transfected (ViaFect, Promega) as per the manufacturer's protocol at a density of 2×10^6 cells per T-25 cell-culture flask. Cells were transfected with plasmids encoding GloSensor (Promega) and either Sm.5HTR, (Smp_126730, GenBank accession number KF444051.1) or Sm.5HTRL (KX150867), both GPCRs being codon optimized for mammalian expression, or Hs.5HT7a (GenBank accession number NM_000872.4, R&D Systems) subcloned into pCS2(−). Cell culture reagents were from Invitrogen. Epitope tagged constructs were used to verify expression, and untagged constructs used for all luminescence assays.
(§2) For assays performed on adherent cells, HEK-293 cells were transferred one day post transfection to 96 well, solid white plates (Corning, cat #3917) coated with 0.01% poly-L-lysine (Sigma Aldrich) at a density of 5×10^4 cells/well in DMEM supplemented with 1% dialyzed FBS (Gibco). After overnight culture (37° C./5% CO2), media was decanted and replaced with 100 μL/well HBSS supplemented with 0.1% BSA, 20 mM HEPES (pH 7.4) and GloSensor™ reagent. Plates were allowed to equilibrate at room temperature for two hours prior to performing luminescence assays (GloMax-Multi Detection System plate reader, Promega). Conditions for individual assays were described as per figure legends. The standard assay to detect changes in cAMP utilized the F22 sensor in media supplemented with IBMX (200 μM). Ligands were added at a concentration of 20× per well for experiments (i.e., 5 μl of drug solution added to 100 μL of cells). […] For the resazurin reduction assay for cellular viability, cells were incubated with resazurin (final concentration, 10 μM) and tested ligands with fluorescence measurements (560 nm excitation/590 nm emission) made at 1.5 hours intervals.
(§3) The protocol for screening is shown schematically in FIG. 5A. HEK293 cells transiently transfected with either the human 5HT7 receptor (Hs.5HT7R) or the schistosome receptor (Sm.5HTR) were exposed to test ligands in a 96-well plate format. […] Luminescence was then read at a fixed time point (t=60 minutes, FIG. 5A). Hits were assigned as compounds that evoked a ≥50% decrease in luminescence output at the fixed time sampling point (FIG. 5B).

Sm.5HTRL = Sm.5HTRL (Schistosoma mansoni, UniProt A0A173FEI8); assay: GloSensor cAMP assay, HEK293 cells transiently transfected with Sm.5HTRL; type: cell-based; details: antagonists 10 μM; 5-HT EC80 dose 0.8 μM (FIG. 8)
Method: as §1, §2

Sm.5HTR [2] = target: Sm.5HTR (Schistosoma mansoni, UniProt A0A173FEI8); assay: cell-based; details: for antagonist activity at Sm.5HTR, in words: FIG. 18B
Method: HEK293 cells (ATCC CRL-1573.3) were cultured in growth media consisting of DMEM supplemented with GlutaMAX (Gibco cat #10566016)+10% heat inactivated fetal bovine serum and penicillin-streptomycin (100 units/mL, ThermoFisher). Stable cell lines for the pGloSensor-22F cAMP Plasmid (Promega) and schistosome 5HTRs in pcDNA3.1(−) were selected with hygromycin (200 μg/mL) and G418 (400 μg/mL). The correct identity of each stably expressed sequence was verified by isolating total RNA from each stable line (TRIzol Reagent, Ambion) and amplifying the sequence of interest with gene specific primers flanking the 5′ and 3′ regions of the cds (SuperScript® III One-Step RT-PCR System, Invitrogen). PCR products were ligated into a TA cloning vector (pGEM-T Easy, Promega) and sequenced.
HEK293 lines stably expressing both the 22F cAMP sensor and Sm.5HTR were cultured in growth media supplemented with 10% dialyzed FRS. For cAMP assays in 96 well format, cells cultured in T-75 flasks were trypsinized (TrypLE Express, Gibco) and plated in solid white 96 well plates (Costar cat #3917) the day prior to assay at a density of 2.5×10^4 cells/well. The following day media was removed and replaced with assay buffer consisting of HBSS buffered with HEPES (20 mM, pH 7.4)+BSA (0.1% w/v) and D-luciferin sodium salt (1 mg/mL, Gold Biotechnology). Plates were equilibrated at room temperature for 1 hour, at which point 3-Isobutyl-1-methylxanthine (IBMX 200 μM, Sigma Aldrich) was added. Plates were equilibrated a further 30 minutes prior to test compound addition. […] Readings performed in 384 well format were modified so that cells were assayed in suspension. Cells were grown to 70% confluence in T-75 flasks, trypsinized and pelleted (300 RCF×5 minutes). Media was removed and cells were resuspended in 25 mL assay buffer supplemented with IBMX (200 μM). A 96 channel semi-automated pipet (Eppendorf epMotion 96) delivered 55 μL of cell suspension per well (5000 cells/well) into solid white 384 plates (Corning 3574).

adult schistosomes = assay: Egg laying assay, adult schistosome pairs in vitro; type: cell-based, Schistosoma mansoni; details: serotonin 100 μM, forskolin 100 μM, LSD 10 μM, nuciferine 10 μM, ergotamine 5 μM (FIG. 19F); eggs per worm pair/day over five days
Text: Female Swiss Webster mice infected with S. mansoni cerceria (NMRI strain) were sacrificed 49 days post infection by CO2 euthanasia. Adult schistosomes were recovered by perfusion with a solution of 0.85% sodium chloride+0.75% sodium citrate and dissection of the mesenteric vasculature. Harvested schistosomes were washed in RPMI 1640 Medium with GlutaMAX+5% heat inactivated FBS (Gibco) and Penicillin-Streptomycin (final concentration 100 units/mL, ThermoFisher cat #15140122).
For egg laying assays, adult schistosomes were transferred to 24 well plates the day after harvesting from mice (5 worm pairs in 2 mL media per well). Eggs were counted under a stereomicroscope daily, after which worms were transferred to a new well with fresh drug containing media. Egg counts were recorded for five days, and data processed as the mean number of eggs laid per worm pair/day. Measurements of egg dimensions were quantified using the “analyze>measure” function in ImageJ to record the length and width of individual eggs.

Hs.5HT7R = target: T1, Hs.5HT7R (Homo sapiens, UniProt P34969); assay: GloSensor cAMP assay, HEK293 cells transiently transfected with Hs.5HT7R; type: cell-based; details: FIG. 7
T1 construct: host or cells: HEK293 (ATCC CRL-1573.3), transient, pCS2(−), co-transfected with GloSensor
Method: as §1, §2, §3

[3] = antagonism of 5-HT evoked cAMP, FIGS. 7, 12, 13
[4] = HEK293, agonist read, 45 minutes, read-out: Sm.5HTR Emax

Sm.5HTR (Schistosoma mansoni, UniProt A0A173FEI8), sequence (A0A173FEI8 entry or part of it): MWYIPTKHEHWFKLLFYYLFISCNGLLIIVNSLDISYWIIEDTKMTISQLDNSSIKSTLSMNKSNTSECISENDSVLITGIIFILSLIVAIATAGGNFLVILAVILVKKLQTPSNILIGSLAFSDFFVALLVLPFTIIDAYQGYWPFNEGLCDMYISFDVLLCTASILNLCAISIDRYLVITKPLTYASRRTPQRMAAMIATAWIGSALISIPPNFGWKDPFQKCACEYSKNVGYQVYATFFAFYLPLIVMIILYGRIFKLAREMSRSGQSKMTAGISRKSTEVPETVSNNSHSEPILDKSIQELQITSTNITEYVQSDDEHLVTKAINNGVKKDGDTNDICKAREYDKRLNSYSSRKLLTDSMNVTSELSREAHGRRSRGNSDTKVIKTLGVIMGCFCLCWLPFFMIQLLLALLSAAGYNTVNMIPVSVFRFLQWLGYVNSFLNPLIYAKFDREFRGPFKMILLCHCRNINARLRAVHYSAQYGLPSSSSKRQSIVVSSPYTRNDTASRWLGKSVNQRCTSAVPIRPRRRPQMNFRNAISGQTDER
Sm.5HTR (Schistosoma mansoni, UniProt G4V5G4), sequence (G4V5G4 entry or part of it): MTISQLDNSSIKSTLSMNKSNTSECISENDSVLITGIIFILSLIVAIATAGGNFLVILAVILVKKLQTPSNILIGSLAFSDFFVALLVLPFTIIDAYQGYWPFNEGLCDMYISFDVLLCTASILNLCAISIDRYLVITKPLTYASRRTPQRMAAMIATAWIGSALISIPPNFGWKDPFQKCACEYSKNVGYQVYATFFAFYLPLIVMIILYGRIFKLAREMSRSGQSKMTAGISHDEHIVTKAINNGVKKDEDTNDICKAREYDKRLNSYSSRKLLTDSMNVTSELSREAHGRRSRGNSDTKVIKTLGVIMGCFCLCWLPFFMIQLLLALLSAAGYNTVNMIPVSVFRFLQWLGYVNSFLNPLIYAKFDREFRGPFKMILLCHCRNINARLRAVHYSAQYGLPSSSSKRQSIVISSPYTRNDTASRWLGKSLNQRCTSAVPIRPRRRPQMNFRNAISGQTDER
T1 sequence (P34969 1-445 isoform P34969-2): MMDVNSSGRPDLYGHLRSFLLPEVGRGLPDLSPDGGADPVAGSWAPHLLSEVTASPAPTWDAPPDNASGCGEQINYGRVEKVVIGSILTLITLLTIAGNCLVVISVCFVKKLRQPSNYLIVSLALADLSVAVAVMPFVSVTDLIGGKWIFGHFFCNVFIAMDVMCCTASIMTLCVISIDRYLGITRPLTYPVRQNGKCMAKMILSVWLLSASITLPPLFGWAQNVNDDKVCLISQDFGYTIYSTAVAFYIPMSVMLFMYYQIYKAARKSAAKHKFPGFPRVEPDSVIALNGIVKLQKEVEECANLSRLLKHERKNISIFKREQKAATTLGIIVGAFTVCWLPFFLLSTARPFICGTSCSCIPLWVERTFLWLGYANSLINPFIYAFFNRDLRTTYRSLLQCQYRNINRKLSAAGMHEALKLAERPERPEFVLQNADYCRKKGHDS
Sm.5HTRL, sequence (A0A173FEI8 entry or part of it): as the sequence (A0A173FEI8 entry or part of it) above

SMILES: COc1cc2nc(N(C)CCCNC(=O)C3CCCO3)nc(N)c2cc1OC (stereo not drawn) [alfuzosin]
- selectivity Sm.5HTR versus Hs.5HT7R (IC50 (Hs.5HT7R)/IC50 (Sm.5HTR)), in words (Sm.5HTR [1]; [3]): clear selectivity for Sm.5HTR
- inhibition of 5-HT evoked cAMP generation through Sm.5HTRL (Sm.5HTRL): inhibited 5-HT evoked cAMP generation through Sm.5HTRL

SMILES: COc1ccc2cc3[n+](cc2c1OC)CCc1cc2c(cc1-3)OCO2 [berberine]
- selectivity Sm.5HTR versus Hs.5HT7R (IC50 (Hs.5HT7R)/IC50 (Sm.5HTR)), in words (Sm.5HTR [1]; [3]): decreased potency and selectivity for Sm.5HTR

SMILES: C[C@@H](CO)NC(=O)[C@@H]1C=C2c3cccc4[nH]cc(c34)C[C@H]2N(C)C1 [ergometrine]
- Emax (Sm.5HTR [2]; [4]): 61 ± 4%

SMILES: C=C[C@@]1(C)CC(=O)[C@]2(O)[C@@]3(C)[C@@H](O)CCC(C)(C)[C@@H]3[C@H](O)[C@H](OC(C)=O)[C@@]2(C)O1 [forskolin]
- decrease of egg laying (adult schistosomes): 62%

SMILES: CNCCC(Oc1ccc(C(F)(F)F)cc1)c1ccccc1 (stereo not drawn) [fluoxetine]
- selectivity Sm.5HTR versus Hs.5HT7R (IC50 (Hs.5HT7R)/IC50 (Sm.5HTR)), in words (Sm.5HTR [1]): preferential selectivity toward Sm.5HTR

SMILES: CC(C)C[C@H]1C(=O)N2CCC[C@H]2[C@]2(O)O[C@](NC(=O)[C@@H]3C=C4c5cccc6[nH]cc(c56)C[C@H]4N(C)C3)(C(C)C)C(=O)N12 [α-ergocryptine]
- antagonist activity at Sm.5HTR, in words (Sm.5HTR [2]): loss of antagonist activity
- Sm.5HTR Emax (Sm.5HTR [2]; agonist read, 45 minutes): negligible activity

SMILES: O=S(=O)(c1ccccc1)c1cnc2c(N3CCNCC3)cccc2c1 [SB742457]
- activity at Sm.5HTR, in words (Sm.5HTR [1]; antagonist screen, FIG. 7): completely lacked activity at Sm.5HTR; also recorded: modest effects on Sm.5HTR
- inhibition of Hs.5HT7R, in words (Hs.5HT7R): potent inhibitors of Hs.5HT7R

SMILES: CC(C)[C@@]1(NC(=O)[C@@H]2C[C@@H]3c4cccc5[nH]cc(c45)C[C@H]3N(C)C2)O[C@@]2(O)[C@@H]3CCCN3C(=O)[C@H](Cc3ccccc3)N2C1=O [dihydroergocristine]
- antagonist activity at Sm.5HTR, in words (Sm.5HTR [2]): is an antagonist
- Emax (Sm.5HTR [2]; [4]): 22 ± 2%

SMILES: CN1C[C@H](C(=O)N[C@]2(C)O[C@@]3(O)[C@@H]4CCCN4C(=O)[C@H](Cc4ccccc4)N3C2=O)C[C@@H]2c3cccc4[nH]cc(c34)C[C@H]21 [dihydroergotamine]
- agonist efficacy at Sm.5HTR, in words (Sm.5HTR [1]; FIG. 10A): partial agonism
- EC50 (Sm.5HTR [1]; FIG. 10A, read-out: EC50, agonist activity at Sm.5HTR): 315 nM
- Emax (Sm.5HTR [2]; HEK293, read-out: Sm.5HTR Emax): 103 ± 11%

— patent US10426772B2, “Use of ergot alkaloids as an anthelmintic agent” (priority 2016, dated 2019)
